In PubChem BioAssay (NCI):
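A five-concentration, 48-hour dose response in 96-well plates underlies each endpoint, interpolated linearly between surrounding concentrations. The concentration for 50% growth inhibition is given as GI50. TGI denotes the concentration required for complete inhibition of growth.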

Columns and labels:
Assay in all cases: inhibition of tumour cell growth, NCI panel, 48 h
[1] = system: 786-0 renal
[2] = system: A549 NSCLC
[3] = system: IGROV1 ovarian
[4] = system: LOX IMVI melanoma
[5] = system: NCI-H226 lung
[6] = system: NCI-H460 lung
[7] = system: NCI-H522 lung
[8] = system: SF-268 CNS
[9] = system: SF-295 CNS
[10] = system: SF-539 CNS
[11] = system: SN12C renal
[12] = system: SW-620 colon
[13] = system: UO-31 renal
[14] = system: SK-MEL-28 melanoma
[15] = system: DU-145 prostate
[16] = system: MCF7 breast

| SMILES | TGI [1] | TGI [2] | TGI [3] | TGI [4] | TGI [5] | TGI [6] | TGI [7] | TGI [8] | TGI [9] | TGI [10] | TGI [11] | TGI [12] | TGI [13] | TGI [14] | TGI [15] | TGI [16] | GI50 [5] | GI50 [8] | GI50 [9] |
| --- | --- | --- | --- | --- | --- | --- | --- | --- | --- | --- | --- | --- | --- | --- | --- | --- | --- | --- | --- |
| C/C(=N\NS(=O)(=O)c1ccc(C)cc1)C(CN1CCOCC1)C(c1ccccc1)c1c(O)c2ccccc2oc1=O (centres undefined) | > 100 µM | > 100 µM | > 100 µM | > 100 µM | > 100 µM | > 100 µM | > 100 µM | > 100 µM | > 100 µM | > 100 µM | > 100 µM | > 100 µM | > 100 µM | – | – | – | – | – | – |
| CNC(=O)CN(CC(=O)NC)C(=O)NC | > 100 µM | > 100 µM | > 100 µM | > 100 µM | > 100 µM | – | > 100 µM | > 100 µM | > 100 µM | > 100 µM | – | > 100 µM | > 100 µM | > 100 µM | – | – | – | – | – |
| C/C(CC(=O)Nc1ccc(Cl)c(Cl)c1)=N/NC(=O)C[n+]1ccccc1 | > 100 µM | > 100 µM | > 100 µM | 37.1 µM | > 100 µM | > 100 µM | > 100 µM | > 100 µM | > 100 µM | > 100 µM | > 100 µM | – | > 100 µM | > 100 µM | – | – | – | – | – |
| COc1cc(OC)cc(Oc2nc3ccccc3nc2C(=O)O)c1 | > 100 µM | > 100 µM | > 100 µM | > 100 µM | > 100 µM | > 100 µM | > 100 µM | > 100 µM | > 100 µM | – | – | > 100 µM | > 100 µM | > 100 µM | > 100 µM | – | – | – | – |
| CC(=O)C1C(=O)C(=O)N(c2cccc(C)c2C)C1=O (centres undefined) | > 100 µM | > 100 µM | > 100 µM | > 100 µM | > 100 µM | – | – | – | > 100 µM | > 100 µM | > 100 µM | – | > 100 µM | – | > 100 µM | > 100 µM | – | – | – |
| C=CCCC(OCOCCOC)c1cc(C)c(O[Si](C)(C)C(C)(C)C)c(C)c1 (centres undefined) | 28.1 µM | 38.5 µM | 90.5 µM | 27.6 µM | 26.4 µM | 32.1 µM | 25.4 µM | 34.1 µM | 31.8 µM | 38.6 µM | 32.2 µM | 33.2 µM | 23.9 µM | 64.7 µM | – | – | – | – | – |
| COc1ccc(N2C(=O)C3c4[nH]c5ccccc5c4C4CCCCCCCCCCC4C3C2=O)cc1 (centres undefined) | 8.17 µM | 23.2 µM | > 48.7 µM | > 46.6 µM | 17.7 µM | 19.5 µM | > 49.1 µM | > 30.5 µM | 39.4 µM | > 33.2 µM | 19.9 µM | 18.7 µM | > 59.8 µM | 29.7 µM | – | – | – | – | – |
| CCN1CCC(O)(c2ccc(C)cc2)C(C(=O)c2ccc(C)cc2)C1 (centres undefined) | 26.6 µM | > 100 µM | > 58.9 µM | > 61.2 µM | > 100 µM | > 81.1 µM | 3.44 µM | > 71.8 µM | > 100 µM | > 59.1 µM | 19.8 µM | 31.8 µM | > 57.5 µM | 56 µM | – | – | – | – | – |
| Cc1ccc(S(=O)(=O)N2CC3OC(C)(C)OC3C2CO)cc1 (centres undefined) | > 100 µM | > 100 µM | > 100 µM | – | > 100 µM | > 100 µM | > 100 µM | > 100 µM | > 100 µM | > 100 µM | > 100 µM | > 100 µM | – | > 100 µM | > 100 µM | > 100 µM | – | – | – |
| CCOC(=O)/C(=C\c1ccc(O)c(OC)c1)C(=O)c1ccccc1 | 37.6 µM | 51.3 µM | 39 µM | 21.7 µM | > 53 µM | > 60.2 µM | 21.9 µM | 28.1 µM | > 52.6 µM | 28 µM | 33.5 µM | 32.4 µM | > 51 µM | 27.7 µM | 61.4 µM | – | – | – | – |
| COc1cccc(-c2cc(=O)c3cc(OC)c(OC)cc3[nH]2)c1 | > 100 µM | > 100 µM | > 100 µM | > 100 µM | 79.8 µM | > 100 µM | 42.4 µM | > 100 µM | > 100 µM | 77.3 µM | > 100 µM | > 100 µM | > 100 µM | > 100 µM | – | – | 21.5 µM | 49.6 µM | 40.3 µM |
| COc1ccc2cc(C(C)C(O)c3cc(F)c(F)c(F)c3F)ccc2c1 (centres undefined) | > 100 µM | > 100 µM | > 100 µM | > 100 µM | > 100 µM | > 100 µM | – | > 100 µM | > 100 µM | – | > 100 µM | > 100 µM | > 100 µM | > 100 µM | > 100 µM | > 100 µM | – | – | – |
| C=CCCCC1CCCNC1=O (centres undefined) | > 100 µM | > 100 µM | > 100 µM | – | > 100 µM | > 100 µM | > 100 µM | > 100 µM | > 100 µM | > 100 µM | > 100 µM | > 100 µM | > 100 µM | > 100 µM | > 100 µM | > 100 µM | – | – | – |
| COc1c(Cl)c2c(c(OC)c1OC)-c1ccc(OC)c(=O)c(Cl)c1C(NC(C)=O)CC2 (centres undefined) | > 33.8 µM | > 100 µM | – | 5.87 µM | 1.59 µM | 1.34 µM | 0.468 µM | 3.57 µM | 0.49 µM | 0.444 µM | > 36.4 µM | > 100 µM | > 100 µM | > 100 µM | – | – | – | – | – |
| COC(=O)c1ccc(OCc2ccc3nc(OC)c(OC)nc3c2)cc1 | > 100 µM | > 100 µM | – | > 100 µM | > 100 µM | > 100 µM | > 100 µM | > 100 µM | > 100 µM | > 100 µM | > 100 µM | > 100 µM | > 100 µM | > 100 µM | – | – | – | – | – |
| OC12c3ccccc3C1(N1CCOCC1)CCCCC21OCCCO1 (centres undefined) | > 100 µM | > 100 µM | > 100 µM | > 100 µM | > 100 µM | > 100 µM | > 100 µM | > 100 µM | > 100 µM | > 100 µM | > 100 µM | – | – | > 100 µM | – | – | – | – | – |
| O=C1CCCCC1CN1CCCC1 (centres undefined) | > 100 µM | > 100 µM | > 100 µM | > 100 µM | > 100 µM | > 100 µM | 0.521 µM | > 100 µM | > 100 µM | – | > 100 µM | > 100 µM | – | > 100 µM | – | – | – | – | – |
